This note sets out measurements from DBAASP.

≈ marks a conversion by molar mass, not a printed value. Where “and” joins values, the source holds several entries; their conditions need not be identical. Identical values can stand only once.

Common to all, as to test: ≥ marks a high value that may be exact or a test limit, other limits are often not marked, values filed in µg/mL are converted to µM
The test system of assay [1] is Staphylococcus aureus ATCC 43300.
The test system of assay [2] is Escherichia coli ATCC 25922.
The test system of assay [3] is Salmonella enterica subsp. enterica serovar Enteritidis ATCC 13076.
In assay [4] the test system is Staphylococcus aureus ATCC BAA-39.
Assay [5] relates to Listeria monocytogenes ATCC 19115.
Assay [6] deals with Klebsiella pneumoniae ATCC 13883.
The test system of assay [7] is Staphylococcus aureus ATCC 25923.
The test system of assay [8] is Escherichia coli W160-37.
Assay [9] relates to Staphylococcus aureus ATCC 29213.
The subject of assay [10] is Candida albicans ATCC 37092.
Assay [11] deals with Staphylococcus hominis M2973.
Assay [12] deals with Pseudomonas aeruginosa PACO12.
Assay [13] has as its system Klebsiella pneumoniae M5825.
Assay [14] has as its system Escherichia coli M5306.
The test system of assay [15] is Staphylococcus saprophyticus M4070.
For assay [16], the system named is Enterococcus faecalis M4899.
The test system of assay [17] is Staphylococcus cohnii.
In assay [18] the test system is Pseudomonas aeruginosa ATCC 27853.
Assay [19] has as its system Escherichia coli PCOS 15.
The test system of assay [20] is Staphylococcus epidermidis M2921.
Assay [21] relates to Enterococcus gallinarum M2723.
For assay [22], the system named is Staphylococcus haemolyticus M2976.
In assay [23] the test system is Staphylococcus aureus P33.
The subject of assay [24] is Acinetobacter sp. M9665.
Assay [25] relates to Staphylococcus epidermidis M2923.
For assay [26], the system named is Enterococcus gallinarum M2685.
Assay [27] deals with Staphylococcus aureus M6784.
Assay [28] has as its system Staphylococcus saprophyticus M2981.
Assay [29] has as its system Klebsiella pneumoniae PFAV 3.
Assay [30] relates to Klebsiella pneumoniae M13540.
Assay [31] concerns Enterococcus faecalis ATCC 51299.
Assay [32] relates to Acinetobacter sp. M9013.
Assay [33] concerns Enterococcus faecalis ATCC 29212.
For assay [34], the system named is Enterococcus faecalis M6534.
Assay [35] has as its system Klebsiella pneumoniae M9170.
Assay [36] has as its system Staphylococcus aureus P204.
In assay [37] the test system is Klebsiella pneumoniae M9491.
Assay [38] concerns Escherichia coli M9884.
In assay [39] the test system is Staphylococcus hominis M2967.
Assay [40] concerns Staphylococcus warneri.
Assay [41] relates to Enterococcus faecium M2664.
For assay [42], the system named is Acinetobacter sp. M5949.
For assay [43], the system named is Enterococcus faecium PZAP 95.
Assay [44] has as its system Acinetobacter sp. M13523.

What is called MIC is the least concentration at which growth counts as inhibited. `CC[C@H](C)[C@H](NC(=O)[C@H](CCCCN)NC(=O)[C@H](CCCN=C(N)N)NC(=O)[C@H](CC(C)C)NC(=O)[C@H](Cc1ccccc1)NC(=O)[C@H](CCCN=C(N)N)NC(=O)CNC(=O)[C@H](Cc1ccccc1)NC(=O)[C@H](CCCN=C(N)N)NC(=O)CNC(=O)[C@H](CCCN=C(N)N)NC(=O)[C@H](CCC(N)=O)NC(=O)[C@@H](NC(=O)[C@@H](N)CC(C)C)C(C)C)C(=O)O` [LVQRGRFGRFLRKI]: the MIC in assay [1] is 32 µM (≈ 55.9 µg/mL); in [2], 22.6 µM and 32 µM; in assay [3], 16 µM (≈ 27.9 µg/mL); in [4], at least 32 µM; in [5], 22.6 µM and ≥ 32 µM; in [6] it was 16 µM and ≥ 32 µM. Further, the MIC in [7] was 11.3 µM and 32 µM.

In turn, `CC[C@H](C)[C@H](NC(=O)[C@H](CC(N)=O)NC(=O)[C@@H](NC(=O)[C@@H](NC(=O)[C@H](CCCCN)NC(=O)[C@H](CCC(N)=O)NC(=O)[C@H](CCC(N)=O)NC(=O)[C@H](C)NC(=O)[C@H](CCC(=O)O)NC(=O)[C@H](CCC(=O)O)NC(=O)[C@@H](NC(=O)[C@H](CC(=O)O)NC(=O)[C@H](CCCCN)NC(=O)[C@H](CC(C)C)NC(C)=O)C(C)C)[C@@H](C)CC)[C@@H](C)CC)C(=O)N[C@H](C(=O)N[C@@H](CCCN=C(N)N)C(=O)N[C@@H](CCCN=C(N)N)C(=O)N[C@@H](CC(C)C)C(N)=O)[C@@H](C)CC` [LKDVEEAQQKIINIIRRL] displayed an MIC in assay [8] of 22 µM (≈ 48.9 µg/mL). This lies in the double-digit micromolar range.

For `CC(C)C[C@H](NC(=O)[C@@H](N)CCCN=C(N)N)C(=O)N1CCC[C@H]1C(=O)N[C@@H](CCCN=C(N)N)C(=O)N1CCC[C@H]1C(=O)N[C@@H](CCCN=C(N)N)C(=O)N1CCC[C@H]1C(=O)N[C@@H](CCCN=C(N)N)C(=O)N1CCC[C@H]1C(=O)N[C@@H](CC(C)C)C(=O)N1CCC[C@H]1C(=O)N[C@@H](Cc1ccccc1)C(=O)N1CCC[C@H]1C(=O)N[C@@H](CCCN=C(N)N)C(=O)N1CCC[C@H]1C(=O)NCC(=O)O` [RLPRPRPRPLPFPRPG], the minimum inhibitory concentration (MIC) in assay [9] is over 500 µM; in assay [2], 114 µM (≈ 218 µg/mL); in assay [10], at least 500 µM.

Regarding `CC[C@H](C)[C@H](NC(=O)[C@H](CCCN=C(N)N)NC(=O)[C@H](CCCCN)NC(=O)[C@H](Cc1ccccc1)NC(=O)[C@H](CCC(=O)O)NC(=O)[C@H](CCCCN)NC(=O)[C@H](Cc1c[nH]c2ccccc12)NC(=O)[C@H](CCCCN)NC(=O)[C@H](CCCCN)NC(=O)[C@H](CC(C)C)NC(=O)[C@H](Cc1c[nH]c2ccccc12)NC(=O)[C@H](CCCCN)NC(=O)[C@H](CCCCN)NC(=O)[C@H](CC(C)C)NC(=O)[C@H](CC(C)C)NC(=O)CN)C(=O)N[C@H](C(=O)NCC(=O)N[C@@H](Cc1ccc(O)cc1)C(N)=O)C(C)C` [GLLKKWLKKWKEFKRIVGY], the MIC was 1.65 µM (≈ 4 µg/mL) in assay [11]; 26.4 µM (≈ 64 µg/mL) in assay [12]; 3.3 µM (≈ 8 µg/mL) in [13]; 1.65 µM (≈ 4 µg/mL) in assay [14]; 13.2 µM (≈ 32 µg/mL) in assay [15]; at least 52.9 µM in assay [16]. The MIC stood at 6.61 µM (≈ 16 µg/mL) in assay [17]; 26.4 µM (≈ 64 µg/mL) in assay [18]; 26.4 µM (≈ 64 µg/mL) in assay [19]; 13.2 µM (≈ 32 µg/mL) in assay [2]; 3.3 µM (≈ 8 µg/mL) in assay [20]; 13.2 µM (≈ 32 µg/mL) in [21]. Also, the MIC is 3.3 µM (≈ 8 µg/mL) in assay [22]; at least 52.9 µM in assay [23]; 13.2 µM (≈ 32 µg/mL) in assay [24]; 6.61 µM (≈ 16 µg/mL) in [25]; 6.61 µM (≈ 16 µg/mL) in [26]; 13.2 µM (≈ 32 µg/mL) in assay [27]. For the same compound, the MIC was 3.3 µM (≈ 8 µg/mL) in [28]; at least 52.9 µM in assay [29]; 6.61 µM (≈ 16 µg/mL) in assay [30]; at least 106 µM in [31]; 3.3 µM (≈ 8 µg/mL) in assay [32]; 52.9 µM (≈ 128 µg/mL) in assay [33]. For the same compound, the MIC in assay [34] is at least 106 µM; in assay [35] it was 13.2 µM (≈ 32 µg/mL); in assay [36], 26.4 µM (≈ 64 µg/mL); in [37] it was 26.4 µM (≈ 64 µg/mL); in [38], 13.2 µM (≈ 32 µg/mL); in [7], 26.4 µM (≈ 64 µg/mL). Further, the MIC in [39] came to 3.3 µM (≈ 8 µg/mL); in assay [40] it was 3.3 µM (≈ 8 µg/mL); in assay [41] it was 3.3 µM (≈ 8 µg/mL); in assay [42] it was 6.61 µM (≈ 16 µg/mL); in assay [43], 6.61 µM (≈ 16 µg/mL); in assay [44] it was 1.65 µM (≈ 4 µg/mL).
